Test system: adjuvant-associated biological themes in LV, SP, LN
Settings: LV, ID
Procedure, shortened: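 Enrichment score S sums −log(p) over consensus themes whose names contain a pre-selected adjuvant-associated term such as "stress" or "cytokine". Consensus requires a theme in all three mice of a group, p<0.05. Themes come from TargetMine analysis of genes with eij/ei(c)>2.0, Fisher's exact test, Holm-Bonferroni-corrected.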

Nc1nc2c(ncn2[C@@H]2O[C@@H]3COP(=O)(O)O[C@H]4[C@@H](O)[C@H](n5cnc6c(=O)[nH]c(N)nc65)O[C@@H]4COP(=O)(O)O[C@H]3[C@H]2O)c(=O)[nH]1 [cdiGMP, Cyclic diguanylate monophosphate]
GO annotation: Cytokine-cytokine receptor interaction (Term: cytokine): 13.8
GO annotation: Cytokine-cytokine receptor interaction|Endocytosis (Term: cytokine): 33.9
GO annotation: I-kappaB kinase/NF-kappaB signaling (Term: NF-kappa B signaling pathway): 13.8
GO annotation: NF-kappa B signaling pathway (Term: NF-kappa B signaling pathway): 15.7
GO annotation: TNF signaling pathway (Term: TNF signaling pathway): 31.3
GO annotation: activation of immune response (Term: immune response): 17.9
GO annotation: activation of innate immune response (Term: innate immune response): 21.2
GO annotation: acute inflammatory response (Term: inflammatory response): 0
GO annotation: adaptive immune response (Term: adaptive immune response): 10
GO annotation: adaptive immune response based on somatic recombination of immune receptors built from immunoglobulin superfamily domains (Term: adaptive immune response): 10.6
GO annotation: apoptotic process (Term: apoptosis): 12.1
GO annotation: apoptotic signaling pathway (Term: apoptosis): 0
GO annotation: cell chemotaxis (Term: chemotaxis): 0
GO annotation: cell death (Term: cell death): 17.7
GO annotation: cell migration (Term: migration): 0
GO annotation: cellular response to cytokine stimulus (Term: cytokine): 38.8
GO annotation: cellular response to interferon-alpha (Term: IFN alpha): 7.42
GO annotation: cellular response to stress (Term: stress): 0
GO annotation: chemokine production (Term: chemokine): 8.52
GO annotation: chemokine-mediated signaling pathway (Term: chemokine): 5.9
GO annotation: chemotaxis (Term: chemotaxis): 0
GO annotation: cytokine biosynthetic process (Term: cytokine): 7.93
GO annotation: cytokine metabolic process (Term: cytokine): 7.39
GO annotation: cytokine production (Term: cytokine): 31.3
GO annotation: cytokine secretion (Term: cytokine): 0
GO annotation: cytokine-mediated signaling pathway (Term: cytokine): 20
GO annotation: death (Term: cell death): 12.1
GO annotation: defense response (Term: defense response): 80.9
GO annotation: defense response to Gram-positive bacterium (Term: defense response): 7.18
GO annotation: defense response to bacterium (Term: defense response): 10.5
GO annotation: defense response to other organism (Term: defense response): 44.1
GO annotation: defense response to protozoan (Term: defense response): 5.31
GO annotation: defense response to virus (Term: defense response): 24.6
GO annotation: granulocyte chemotaxis (Term: chemotaxis): 0
GO annotation: granulocyte migration (Term: migration): 0
GO annotation: immune response (Term: immune response): 52.3
GO annotation: immune response-activating signal transduction (Term: immune response): 19.3
GO annotation: immune response-regulating signaling pathway (Term: immune response): 23.5
GO annotation: inflammatory response (Term: inflammatory response): 26.1
GO annotation: innate immune response (Term: innate immune response): 40.7
GO annotation: innate immune response-activating signal transduction (Term: innate immune response): 20.3
GO annotation: interferon-alpha production (Term: IFN alpha): 7.69
GO annotation: intrinsic apoptotic signaling pathway (Term: apoptosis): 0
GO annotation: leukocyte chemotaxis (Term: chemotaxis): 0
GO annotation: leukocyte migration (Term: migration): 0
GO annotation: leukocyte migration involved in inflammatory response (Term: inflammatory response): 0
GO annotation: lymphocyte chemotaxis (Term: chemotaxis): 0
GO annotation: lymphocyte migration (Term: migration): 0
GO annotation: myeloid leukocyte migration (Term: migration): 0
GO annotation: negative regulation of apoptotic process (Term: apoptosis): 0
GO annotation: negative regulation of cell death (Term: cell death): 0
GO annotation: negative regulation of cytokine production (Term: cytokine): 6.2
GO annotation: negative regulation of defense response (Term: defense response): 8.05
GO annotation: negative regulation of immune response (Term: immune response): 6.54
GO annotation: negative regulation of innate immune response (Term: innate immune response): 10.4
GO annotation: negative regulation of programmed cell death (Term: cell death): 0
GO annotation: neutrophil chemotaxis (Term: chemotaxis): 0
GO annotation: neutrophil migration (Term: migration): 0
GO annotation: positive regulation of I-kappaB kinase/NF-kappaB signaling (Term: NF-kappa B signaling pathway): 7.15
GO annotation: positive regulation of adaptive immune response (Term: adaptive immune response): 0
GO annotation: positive regulation of apoptotic process (Term: apoptosis): 0
GO annotation: positive regulation of cell death (Term: cell death): 0
GO annotation: positive regulation of cell migration (Term: migration): 0
GO annotation: positive regulation of chemokine production (Term: chemokine): 8.31
GO annotation: positive regulation of chemotaxis (Term: chemotaxis): 0
GO annotation: positive regulation of cytokine biosynthetic process (Term: cytokine): 3.62
GO annotation: positive regulation of cytokine production (Term: cytokine): 23.6
GO annotation: positive regulation of defense response (Term: defense response): 35.8
GO annotation: positive regulation of immune response (Term: immune response): 24.4
GO annotation: positive regulation of inflammatory response (Term: inflammatory response): 0
GO annotation: positive regulation of innate immune response (Term: innate immune response): 22.3
GO annotation: positive regulation of interferon-alpha production (Term: IFN alpha): 8.97
GO annotation: positive regulation of leukocyte chemotaxis (Term: chemotaxis): 0
GO annotation: positive regulation of leukocyte migration (Term: migration): 3.33
GO annotation: positive regulation of programmed cell death (Term: cell death): 0
GO annotation: positive regulation of response to wounding (Term: wounding): 0
GO annotation: positive regulation of tumor necrosis factor superfamily cytokine (Term: cytokine): 0
GO annotation: production of molecular mediator of immune response (Term: immune response): 0
GO annotation: programmed cell death (Term: cell death): 14
GO annotation: regulation of I-kappaB kinase/NF-kappaB signaling (Term: NF-kappa B signaling pathway): 8.16
GO annotation: regulation of adaptive immune response (Term: adaptive immune response): 8.01
GO annotation: regulation of adaptive immune response based on somatic recombination of immune receptors built from immunoglobulin superfamily domains (Term: adaptive immune response): 3.64
GO annotation: regulation of apoptotic process (Term: apoptosis): 4.93
GO annotation: regulation of apoptotic signaling pathway (Term: apoptosis): 0
GO annotation: regulation of cell death (Term: cell death): 4.48
GO annotation: regulation of cell migration (Term: migration): 0
GO annotation: regulation of chemokine production (Term: chemokine): 9.64
GO annotation: regulation of chemotaxis (Term: chemotaxis): 0
GO annotation: regulation of cytokine biosynthetic process (Term: cytokine): 3.81
GO annotation: regulation of cytokine production (Term: cytokine): 31.6
GO annotation: regulation of defense response (Term: defense response): 56.5
GO annotation: regulation of defense response to virus (Term: defense response): 0
GO annotation: regulation of defense response to virus by host (Term: defense response): 0
GO annotation: regulation of immune response (Term: immune response): 29.4
GO annotation: regulation of inflammatory response (Term: inflammatory response): 12.3
GO annotation: regulation of innate immune response (Term: innate immune response): 33.4
GO annotation: regulation of interferon-alpha production (Term: IFN alpha): 8.3
GO annotation: regulation of intrinsic apoptotic signaling pathway (Term: apoptosis): 0
GO annotation: regulation of leukocyte chemotaxis (Term: chemotaxis): 0
GO annotation: regulation of leukocyte migration (Term: migration): 0
GO annotation: regulation of programmed cell death (Term: cell death): 5.36
GO annotation: regulation of response to stress (Term: stress): 42.9
GO annotation: regulation of response to wounding (Term: wounding): 10.7
GO annotation: regulation of tumor necrosis factor superfamily cytokine production (Term: cytokine): 4.03
GO annotation: response to cytokine (Term: cytokine): 56.3
GO annotation: response to interferon-alpha (Term: IFN alpha): 12.6
GO annotation: response to stress (Term: stress): 56.2
GO annotation: response to wounding (Term: wounding): 11.4
GO annotation: taxis (Term: chemotaxis): 0
GO annotation: tumor necrosis factor superfamily cytokine production (Term: cytokine): 3.79
IFN beta: cellular response to interferon-beta: 23.1
IFN beta: interferon-beta production: 8.61
IFN beta: positive regulation of interferon-beta production: 13.2
IFN beta: regulation of interferon-beta production: 9.22
IFN beta: response to interferon-beta: 26.5
IFN gamma: cellular response to interferon-gamma: 10.1
IFN gamma: interferon-gamma production: 5.35
IFN gamma: regulation of interferon-gamma production: 0
IFN gamma: response to interferon-gamma: 10.8
interleukin-6: interleukin-6 production: 7.8
interleukin-6: positive regulation of interleukin-6 production: 0
interleukin-6: regulation of interleukin-6 production: 8.27
interleukin-12: interleukin-12 production: 6.51
interleukin-12: positive regulation of interleukin-12 production: 0
interleukin-12: regulation of interleukin-12 production: 6.99

— US20230021483A1, “[…] […] METHOD AND CLASSIFICATION OF PHARMACEUTICAL COMPONENTS BY USING TRANSCRIPTOMES” (National Institutes of Biomedical Innovation, Health and …, priority 2016, published 2023)
